From US20250195474A1, “Piezo Inhibition for Wound Healing” (priority 2022, published 2025)

Key:
mouse adipocytes = assay: Mouse adipocyte-populated collagen I hydrogels with or without mechanical stretch; conditions: 10% equibiaxial strain, 7 days; GsMTx4 500 nM, D-GsMTx4 500 nM, PF573228 10 uM, Verteporfin 300 nM
human adipocytes [1] = assay: Human adipocyte-populated collagen I hydrogels with or without mechanical stretch
human adipocytes [2] = assay: Calcium imaging of hydrogel-bound adipocytes (Fluo-4 AM); format: cell-based; conditions: stretched human adipocytes
Excerpt: Calcium imaging was used to determine in vitro Ca^2+ flow in hydrogel-bound adipocytes with or without mechanical strain and with or without Piezo1 inhibitor treatment. A Fluo-4, AM cell permeant kit (ThermoFisher, Cat: F-14201) was used per the manufacturer's instructions. […] Imagej was used for image quantification.

dorsal excisional wounds [3] = assay: Splinted dorsal excisional wounding with inhibitor injected at POD 0; format: in vivo, mouse
wounds [4] = assay: Visium spatial transcriptomic analysis of wounds; format: in vivo, mouse
Protocol: Wound specimens were rapidly harvested and flash frozen in OCT. Using the Visium Tissue Optimization Slide and Reagent Kit, permeabilization time was optimized at a thickness at 10 μm per section and 37 minutes for mouse tissue. Following cryo-sectioning at −20 degrees onto gene expression slides the expression slide and reagent kit was used to produce sequencing libraries. The libraries were then sequences using NextSeq (Illumina). Following demultiplication the raw FASTQ files and histology images were processed by sample with the Space Ranger software for genome alignment. The raw spaceranger output files for each sample was then read into a Seurat class object in R using Seurat's Load10× function. Data was normalized using the SCT transform with default parameters. To ascertain the integration of our scRNAseq and Visium spatial analysis we employed the FindTransferAnchors( ) function from Seurat, which allowed the alignment of data using the two datasets. This cross-platform linkage is performed serially in an unconstrained and constrained fashion.

wounds [5] = assay: CODEX spatial protein analysis of POD 14 wounds; format: in vivo, mouse; conditions: POD 14, vs PBS
Excerpt: To spatially phenotype the pig specimens, we used Co-Detection by Indexing (CODEX), a novel assay in which markers are labeled with oligonucleotide-conjugated antibodies and iteratively imaged between cyclic additions and washouts of dye-labeled oligonucleotides. A custom CODEX panel was designed to assess wound cells within the tissue see Table 1). In brief, primary antibodies were individually barcoded and validated using the commercial supplier's protocols. OCT for mouse or paraffin blocks for human xenograft (n=3 per group) were sectioned at 8 μm thickness onto coverslips for CODEX antibody staining. Antigens were retrieved by standard citrate-EDTA processing prior to addition of CODEX antibodies. Using a CODEX-integrated Keyence BZ-X instrument (Akoya Biosciences) image acquisition was then performed. Using software from Akoya Biosciences the raw images were process, with cell segmentation, and rendering.
The CODEX was visualized using Akoya Biosciences Multiplex Analysis Viewer (MAV) in ImageJ. The resulting .fcs files were then concatenated in FlowJo and imported into the Monocle3 and STvEA R packages for further analysis. After debris removal, the processed UMAP manifold was analyzed through Monocle3 with a post-manifold threshold of >10,000 cells per cluster. Analysis of the protein staining patterns was then used to assign cell types. The cell interactions were then inferred using STvEA for cell types at >2.5% of total abundance at k=20 nearest neighbors to quantify cell spatial interactions, and differential interaction maps were generated using graph scores.

existing scars = assay: Treatment of existing scars during remodeling (scar rescue); format: in vivo, mouse; conditions: treated at POD 30, 75 or 120, harvested one month later
Excerpt: While wound re-epithelialization is complete relatively quickly (around 2 weeks), wounds continue to heal beneath the surface for months to years in a process known as scar remodeling. (Foster et al., 2021; Gurtner et al., 2008) Remodeling is the longest and least well understood phase of wound repair but is likely critical to ultimate outcomes. We postulated that ADFs could continue to play a role in scarring during the remodeling process; if this were the case, we wondered whether ADF activity could be targeted during wound remodeling, via P1i in existing, actively remodeling scars, to ultimately reduce scarring and drive regeneration (FIG. 6A,C). Thus, we administered P1i to existing scars at POD 30 (early remodeling period), POD 75 (mid-remodeling), and POD 120 (late remodeling), then harvested tissue one month later at POD 60, POD 105, and […] respectively (FIG. 6A, C).

dorsal excisional wounds [6] = conditions: POD 30; cited from earlier work
adipocytes = assay: Adipocyte ablation with diphtheria toxin in wounded Adipoq Cre-ERT iDTR mice; format: in vivo, mouse
human fibroblasts = assay: Human fibroblasts in 3D collagen gels with stretching; format: cell-based
Excerpt: To further confirm that human cluster 3 represented a pro-regenerative ADF population we utilized our in vitro collagen gel system. We first, FACS sorted human fibroblasts based on expression of cluster 3 markers including ROBO2, CD29, and SFRP2 and seeded them into 3D collagen gels (FIG. 42B). […] In contrast, stretching with P1 inhibition kept the fibroblasts in a more adipocyte-like phenotype, with high expression of PPARg and low expression of Collagen Type I, similar to fibroblasts in an unstretched state (FIG. 42B).
To determine if P1i may activate […] Wnt pathways to maintain cluster 3 in an adipocyte-like phenotype, we applied Wnt5a recombinant protein to the in vitro collagen gel system (FIG. 42C). […] In summary, P1i treatment may revert fibroblasts towards the mechanically naïve fibroblast pro-regenerative fibroblast population through the activation of canonical Wnt pathways and thereby preventing the transition to pro-scarring phenotypes defined by CJUN and VCAM1 expression.

CS(=O)(=O)c1cccc(CNc2nc(Nc3ccc4c(c3)CCC(=O)N4)ncc2C(F)(F)F)c1 [FAKi, PF573228]
stretch-induced phenotypic switch (losing adiponectin, expressing Col1) (mouse adipocytes): abrogated

Clc1cccc(Cl)c1CSc1nnc(-c2cnccn2)s1 [Yoda1]
adipocyte hypertrophy and conversion to fibroblasts (human adipocytes [1]; absence of applied stretch): sufficient to drive adipocyte hypertrophy and conversion to fibroblasts

D-GsMTx4 [P2i]
calcium staining with stretching (human adipocytes [2]): decreased | time to complete wound re-epithelialization (dorsal excisional wounds [3]; 30 uL of 0.2 mg/ml intradermal at wound edge, POD 0): did not significantly affect | Oil Red O staining and IF for cytokeratins 14/19 (regenerating appendages) (dorsal excisional wounds [3]; POD 14): presence of putative regenerating sebaceous glands/HF | adipocyte-derived fibroblasts (ADFs) in wounds (dorsal excisional wounds [3]; POD 14, FACS and histology): significantly reduced | Col1 and α-SMA (dorsal excisional wounds [3]; POD 14 and POD 30): reduced | ECM density (dorsal excisional wounds [3]; POD 14 and POD 30): less dense | hair follicle formation (dorsal excisional wounds [3]; POD 30): allowed for hair follicle formation | differential interaction maps (Visium) (wounds [4]; POD 14): strong interactions between adipocytes and fibroblasts | fibroblast scRNA-seq cluster 0 (mechanically sensitive) spatial enrichment (wounds [4]; POD 14): highly enriched in PBS-treated POD 14 wounds compared to P1i or P2i treated wounds | fibroblast scRNA-seq cluster 5 (mechanically naive) spatial presence (wounds [4]; POD 14): observed | spatially variable features (gene expression) (wounds [4]; POD 14): high expression of markers associated with the epidermis including Krt1 and Krt14 | adipocyte and epithelial cells in the spatial environment (wounds [4]; POD 14, vs PBS): enriched | individual adipocyte-fibroblast subpopulation interactions (CODEX) (wounds [5]): enhanced interactions between mechanically naïve subpopulations including adipocyte cluster 1 and fibroblast clusters 2 and 4 | stretch-induced phenotypic switch (losing adiponectin, expressing Col1) (mouse adipocytes): abrogated | stretch-induced hypertrophy of human adipocytes (human adipocytes [1]; 10% equibiaxial strain, 7 days): reversed

Verteporfin [YAPi]
wound regeneration in existing scars (existing scars): did not induce regeneration | hair regrowth (previous study, Mascharak et al., 2021a) (dorsal excisional wounds [6]): allow for hair regrowth | stretch-induced phenotypic switch (losing adiponectin, expressing Col1) (mouse adipocytes): abrogated

diphtheria toxin [DT]
subdermal fat and GFP+ cells (efficacy of ablation) (adipocytes; 200 ng intradermal daily over 3 days, unwounded skin and POD 14 wounds): minimal to no subdermal fat and no GFP^+ cells in wounds | ECM ultrastructure (adipocytes; POD 14): less scar-like and more closely resembled unwounded skin | Col1 and α-SMA content (adipocytes; POD 14, vs PBS control scars): decreased | ECM density (adipocytes; POD 14, vs PBS control scars): less dense | dermal thickness (adipocytes; POD 14, vs PBS control scars): significantly reduced

B1: Wnt5a recombinant protein: Wnt5a recombinant protein applied to the in vitro collagen gel system (protein, UniProt P41221 62-380, looked up)
Protein Wnt-5a: IIGAQPLCSQLAGLSQGQKKLCHLYQDHMQYIGEGAKTGIKECQYQFRHRRWNCSTVDNTSVFGRVMQIGSRETAFTYAVSAAGVVNAMSRACREGELSTCGCSRAARPKDLPRDWLWGGCGDNIDYGYRFAKEFVDARERERIHAKGSYESARILMNLHNNEAGRRTVYNLADVACKCHGVSGSCSLKTCWLQLADFRKVGDALKEKYDSAAAMRLNSRGKLVQVNSRFNSPTTQDLVYIDPSPDYCVRNESTGSLGTQGRLCNKTSEGMDGCELMCCGRGYDQFKTVQTERCHCKFHWCCYVKCKKCTEIVDQFVCK
phenotype of human fibroblasts (PPARg, Collagen Type 1) (human fibroblasts): a more adipocyte like phenotype with high expression of PPARg and low expression of Collagen Type 1
